Columns and labels:
[1] = molecular target: Macrophage colony-stimulating factor 1 receptor (Homo sapiens, UniProt P07333); experiment: Inhibition of FMS (unknown origin) in presence of ATP
[2] = molecular target: Tyrosine-protein kinase JAK2 (Homo sapiens) (UniProt O60674); experiment: Inhibition of JAK2 (unknown origin) at 1 uM relative to control
[3] = molecular target: High affinity nerve growth factor receptor (Homo sapiens) (UniProt P04629); experiment: Inhibition of TRKA (unknown origin) at 1 uM relative to control
[4] = tested on: K562; experiment: Antiproliferative activity against human K562 cells assessed as cell growth inhibition measured after 48 hrs by SRB assay; assay type: functional
[5] = tested on: RPMI-8226; experiment: Antiproliferative activity against human RPMI-8226 cells assessed as cell growth inhibition at 10 uM measured after 48 hrs by SRB assay relative to control; assay type: functional; conditions: read-out: GI
[6] = molecular target: Serine/threonine-protein kinase PLK1 (Homo sapiens) (UniProt P53350); experiment: Inhibition of PLK1 (unknown origin) at 1 uM relative to control
[7] = molecular target: Focal adhesion kinase 1 (Homo sapiens) (UniProt Q05397); experiment: Inhibition of FAK/PTK2 (unknown origin) at 1 uM relative to control
[8] = tested on: HL-60(TB); experiment: Antiproliferative activity against human HL-60(TB) cells assessed as cell growth inhibition at 10 uM measured after 48 hrs by SRB assay relative to control; assay type: functional; conditions: read-out: GI
[9] = molecular target: Receptor-type tyrosine-protein kinase FLT3 (Homo sapiens) (UniProt P36888); experiment: Inhibition of FLT3 (unknown origin) at 1 uM relative to control
[10] = molecular target: Bcr/Abl fusion protein (Homo sapiens, UniProt P00519); experiment: Inhibition of wild type BCR-ABL (unknown origin) incubated for 40 mins in presence of [gamma33P]ATP by scintillation method; assay type: protein assay
[11] = tested on: SR; experiment: Antiproliferative activity against human SR cells assessed as cell growth inhibition measured after 48 hrs by SRB assay; assay type: functional
[12] = molecular target: Receptor-type tyrosine-protein kinase FLT3 (Homo sapiens, UniProt P36888); experiment: Inhibition of FLT3 (unknown origin) in presence of ATP
[13] = Antiproliferative activity against human L132 cells assessed as cell growth inhibition incubated for 72 hrs by MTT assay; assay type: cell-based
[14] = molecular target: Cyclin-dependent kinase 4/cyclin D1 (Homo sapiens) (UniProt P11802+P24385); experiment: Inhibition of CDK4/cyclinD1 (unknown origin) at 1 uM relative to control; assay type: protein-complex assay
[15] = molecular target: Proto-oncogene tyrosine-protein kinase Src (Homo sapiens, UniProt P12931); experiment: Inhibition of c-Src (unknown origin) at 1 uM relative to control
[16] = tested on: MOLT-4; experiment: Antiproliferative activity against human MOLT-4 cells assessed as cell growth inhibition at 10 uM measured after 48 hrs by SRB assay relative to control; assay type: functional; conditions: read-out: GI
[17] = Cmax in ICR mouse at 10 mg/kg, po measured up to 8 hrs by LC-MS/MS analysis; assay type: ADME, organism-based; parameters: route oral, dose 10 mg/kg, time <=8; conditions: in vivo

High affinity nerve growth factor receptor (Homo sapiens), sequence (P04629 33-796 limits assumed): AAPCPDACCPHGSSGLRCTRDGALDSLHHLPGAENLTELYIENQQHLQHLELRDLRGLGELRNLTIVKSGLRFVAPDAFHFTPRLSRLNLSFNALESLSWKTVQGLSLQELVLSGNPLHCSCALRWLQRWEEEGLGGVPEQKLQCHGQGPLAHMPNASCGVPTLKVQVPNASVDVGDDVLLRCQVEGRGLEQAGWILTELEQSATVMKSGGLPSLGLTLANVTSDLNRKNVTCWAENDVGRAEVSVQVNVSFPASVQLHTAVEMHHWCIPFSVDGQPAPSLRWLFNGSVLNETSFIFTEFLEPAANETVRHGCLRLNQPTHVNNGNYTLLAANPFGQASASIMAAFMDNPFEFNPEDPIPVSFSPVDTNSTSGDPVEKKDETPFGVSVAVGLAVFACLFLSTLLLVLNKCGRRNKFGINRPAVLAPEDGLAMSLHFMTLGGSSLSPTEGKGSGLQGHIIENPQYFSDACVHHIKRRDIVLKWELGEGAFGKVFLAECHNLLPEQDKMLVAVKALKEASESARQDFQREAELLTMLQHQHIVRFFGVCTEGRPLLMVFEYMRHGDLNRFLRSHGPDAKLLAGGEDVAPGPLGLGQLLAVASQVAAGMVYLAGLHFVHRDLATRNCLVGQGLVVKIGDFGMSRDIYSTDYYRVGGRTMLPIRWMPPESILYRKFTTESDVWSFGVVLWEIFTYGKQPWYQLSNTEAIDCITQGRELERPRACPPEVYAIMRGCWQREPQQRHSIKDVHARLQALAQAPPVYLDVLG
Focal adhesion kinase 1 (Homo sapiens), sequence (Q05397 2-1052 limits assumed): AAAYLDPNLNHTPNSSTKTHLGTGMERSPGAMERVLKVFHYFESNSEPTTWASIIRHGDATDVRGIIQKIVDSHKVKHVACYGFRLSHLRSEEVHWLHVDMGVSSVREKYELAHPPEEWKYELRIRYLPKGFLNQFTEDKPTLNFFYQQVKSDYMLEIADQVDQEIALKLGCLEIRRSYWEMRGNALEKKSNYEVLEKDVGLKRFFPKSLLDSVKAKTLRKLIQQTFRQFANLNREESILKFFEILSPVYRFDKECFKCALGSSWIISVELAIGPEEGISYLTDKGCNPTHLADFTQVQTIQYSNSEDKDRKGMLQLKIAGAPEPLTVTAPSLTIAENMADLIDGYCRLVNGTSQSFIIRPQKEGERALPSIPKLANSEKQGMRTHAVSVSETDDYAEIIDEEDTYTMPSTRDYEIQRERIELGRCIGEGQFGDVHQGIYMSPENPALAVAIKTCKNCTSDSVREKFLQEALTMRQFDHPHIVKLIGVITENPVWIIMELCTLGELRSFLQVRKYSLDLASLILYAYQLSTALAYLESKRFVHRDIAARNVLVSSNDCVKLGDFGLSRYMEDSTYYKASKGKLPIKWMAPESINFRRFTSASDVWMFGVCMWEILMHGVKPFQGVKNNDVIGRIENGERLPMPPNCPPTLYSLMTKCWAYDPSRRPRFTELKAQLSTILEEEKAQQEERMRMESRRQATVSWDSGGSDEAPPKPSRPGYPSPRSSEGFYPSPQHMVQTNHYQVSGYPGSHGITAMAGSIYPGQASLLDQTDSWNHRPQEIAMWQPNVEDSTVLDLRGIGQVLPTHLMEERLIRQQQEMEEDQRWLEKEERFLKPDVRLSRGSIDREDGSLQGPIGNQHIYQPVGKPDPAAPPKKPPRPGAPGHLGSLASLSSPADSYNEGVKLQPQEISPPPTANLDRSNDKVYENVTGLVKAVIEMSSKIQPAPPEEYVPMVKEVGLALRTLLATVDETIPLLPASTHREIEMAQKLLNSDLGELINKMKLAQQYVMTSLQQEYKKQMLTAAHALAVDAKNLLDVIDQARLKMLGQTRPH
Serine/threonine-protein kinase PLK1 (Homo sapiens), sequence (P53350 whole entry): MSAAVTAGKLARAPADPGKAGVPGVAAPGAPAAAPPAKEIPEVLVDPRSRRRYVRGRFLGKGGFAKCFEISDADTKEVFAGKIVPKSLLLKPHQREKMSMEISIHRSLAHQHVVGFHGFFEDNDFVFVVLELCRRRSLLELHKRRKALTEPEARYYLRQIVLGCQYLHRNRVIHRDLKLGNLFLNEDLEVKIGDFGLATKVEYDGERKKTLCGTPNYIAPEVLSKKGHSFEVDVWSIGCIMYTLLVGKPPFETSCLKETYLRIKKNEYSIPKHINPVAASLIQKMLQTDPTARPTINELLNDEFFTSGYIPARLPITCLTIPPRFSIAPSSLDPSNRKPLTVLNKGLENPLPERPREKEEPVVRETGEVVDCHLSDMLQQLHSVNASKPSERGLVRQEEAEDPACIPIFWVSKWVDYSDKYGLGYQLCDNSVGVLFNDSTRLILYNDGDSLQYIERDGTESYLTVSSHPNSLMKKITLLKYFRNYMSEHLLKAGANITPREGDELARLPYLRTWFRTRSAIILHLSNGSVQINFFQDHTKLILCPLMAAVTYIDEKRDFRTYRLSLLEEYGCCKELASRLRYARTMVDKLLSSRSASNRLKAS
Tyrosine-protein kinase JAK2 (Homo sapiens), sequence (O60674 whole entry): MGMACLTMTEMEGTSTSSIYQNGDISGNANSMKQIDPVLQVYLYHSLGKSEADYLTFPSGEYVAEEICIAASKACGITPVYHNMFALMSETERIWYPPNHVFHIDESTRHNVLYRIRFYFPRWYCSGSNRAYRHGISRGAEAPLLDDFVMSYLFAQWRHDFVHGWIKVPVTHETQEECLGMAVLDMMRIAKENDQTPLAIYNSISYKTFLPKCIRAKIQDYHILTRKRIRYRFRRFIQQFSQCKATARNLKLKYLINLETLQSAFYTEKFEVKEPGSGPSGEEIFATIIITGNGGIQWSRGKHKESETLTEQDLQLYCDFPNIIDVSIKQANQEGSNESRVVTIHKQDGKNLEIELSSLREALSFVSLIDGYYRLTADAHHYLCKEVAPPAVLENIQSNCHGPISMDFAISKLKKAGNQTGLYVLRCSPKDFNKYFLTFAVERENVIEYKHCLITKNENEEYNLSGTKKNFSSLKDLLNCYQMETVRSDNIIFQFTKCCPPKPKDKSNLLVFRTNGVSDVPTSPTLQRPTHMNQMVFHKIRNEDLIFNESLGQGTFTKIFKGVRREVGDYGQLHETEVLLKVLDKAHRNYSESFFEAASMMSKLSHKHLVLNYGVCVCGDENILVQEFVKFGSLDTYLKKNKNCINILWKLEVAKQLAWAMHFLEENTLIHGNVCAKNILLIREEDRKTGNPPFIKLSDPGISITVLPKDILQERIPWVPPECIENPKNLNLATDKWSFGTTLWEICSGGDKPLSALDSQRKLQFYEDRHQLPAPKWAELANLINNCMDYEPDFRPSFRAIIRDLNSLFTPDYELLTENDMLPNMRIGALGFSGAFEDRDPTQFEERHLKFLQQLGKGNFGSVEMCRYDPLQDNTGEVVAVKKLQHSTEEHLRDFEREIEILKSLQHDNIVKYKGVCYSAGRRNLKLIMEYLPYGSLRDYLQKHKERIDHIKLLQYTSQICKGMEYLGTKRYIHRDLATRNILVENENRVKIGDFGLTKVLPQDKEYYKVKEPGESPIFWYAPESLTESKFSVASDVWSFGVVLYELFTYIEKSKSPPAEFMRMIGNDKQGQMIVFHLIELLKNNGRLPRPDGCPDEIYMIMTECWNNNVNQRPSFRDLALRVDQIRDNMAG
Receptor-type tyrosine-protein kinase FLT3 (Homo sapiens), sequence (P36888 whole entry, the tested form may be a part): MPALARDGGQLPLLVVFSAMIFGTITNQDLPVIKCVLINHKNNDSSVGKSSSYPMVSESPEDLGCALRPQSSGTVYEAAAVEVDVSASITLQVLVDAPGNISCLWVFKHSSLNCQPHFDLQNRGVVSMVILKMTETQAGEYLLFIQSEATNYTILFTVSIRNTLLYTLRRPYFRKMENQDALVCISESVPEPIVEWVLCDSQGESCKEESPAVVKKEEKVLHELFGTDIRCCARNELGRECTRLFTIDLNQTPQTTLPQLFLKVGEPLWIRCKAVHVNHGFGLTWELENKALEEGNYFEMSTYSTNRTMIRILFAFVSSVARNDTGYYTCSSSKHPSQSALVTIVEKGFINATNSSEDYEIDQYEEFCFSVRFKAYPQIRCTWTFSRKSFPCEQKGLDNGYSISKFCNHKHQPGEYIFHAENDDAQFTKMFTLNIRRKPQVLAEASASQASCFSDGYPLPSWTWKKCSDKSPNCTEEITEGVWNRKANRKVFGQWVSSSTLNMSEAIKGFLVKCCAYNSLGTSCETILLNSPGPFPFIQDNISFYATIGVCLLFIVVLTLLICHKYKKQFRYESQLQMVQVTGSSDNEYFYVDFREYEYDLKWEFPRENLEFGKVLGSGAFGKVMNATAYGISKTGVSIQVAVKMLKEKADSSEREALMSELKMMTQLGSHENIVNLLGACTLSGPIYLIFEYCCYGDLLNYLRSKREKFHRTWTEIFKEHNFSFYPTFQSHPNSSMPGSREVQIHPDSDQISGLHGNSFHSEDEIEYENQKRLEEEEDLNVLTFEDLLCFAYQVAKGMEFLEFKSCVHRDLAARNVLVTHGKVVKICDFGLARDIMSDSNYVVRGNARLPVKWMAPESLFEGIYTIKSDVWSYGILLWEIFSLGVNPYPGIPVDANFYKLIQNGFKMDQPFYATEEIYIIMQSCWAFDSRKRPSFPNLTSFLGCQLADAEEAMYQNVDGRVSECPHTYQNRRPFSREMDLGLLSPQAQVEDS
Receptor-type tyrosine-protein kinase FLT3, sequence (P36888 whole entry): as the sequence (P36888 whole entry, the tested form may be a part) above

Compound: Nc1n[nH]c2cccc(C#Cc3cccc(NC(=O)c4ccc(N5CCOCC5)c(C(F)(F)F)c4)c3)c12
- IC50 [1]: 0.0162 µM
- inhibition [2]: < 30%
- inhibition [3]: < 30%
- GI50 [4]: < 0.01 µM
- inhibition of growth at 10 µM [5]: > 100%
- inhibition [6]: < 30%
- inhibition [7]: < 30%
- inhibition of growth at 10 µM [8]: 98%
- inhibition [9]: 87.8%
- IC50 [10]: 0.0046 µM
- GI50 [11]: 2.4 µM
- IC50 [12]: 0.535 µM
- GI50 at 72 h [13]: 9.27 µM
- inhibition [14]: < 30%
- inhibition [15]: 87.8%
- inhibition of growth at 10 µM [16]: 92.3%
- Cmax [17]: 0.113 µg/mL

— ChEMBL document CHEMBL4765455, “Design, synthesis, and biological evaluations of novel 3-amino-4-ethynyl indazole derivatives as Bcr-Abl kinase inhibitors with potent cellular antileukemic activity” (Eur J Med Chem, 2020)
